In patent US20080058324A1, “Alpha-Keto Carbonyl Calpain Inhibitors” (SANTHERA PHARMACEUTICALS (SCHWEIZ) AG, priority 2004, published 2008):
pIC50: −log10 of the molar value.

Key:
[1] = target: T1, human μ-calpain (Homo sapiens, UniProt P07384); assay: Enzymatic Calpain Inhibition Assay; assay type: biochemical; settings: read-out: Calp I IC50
T1 construct: purchased Calbiochem
T1 sequence (P07384 1-714): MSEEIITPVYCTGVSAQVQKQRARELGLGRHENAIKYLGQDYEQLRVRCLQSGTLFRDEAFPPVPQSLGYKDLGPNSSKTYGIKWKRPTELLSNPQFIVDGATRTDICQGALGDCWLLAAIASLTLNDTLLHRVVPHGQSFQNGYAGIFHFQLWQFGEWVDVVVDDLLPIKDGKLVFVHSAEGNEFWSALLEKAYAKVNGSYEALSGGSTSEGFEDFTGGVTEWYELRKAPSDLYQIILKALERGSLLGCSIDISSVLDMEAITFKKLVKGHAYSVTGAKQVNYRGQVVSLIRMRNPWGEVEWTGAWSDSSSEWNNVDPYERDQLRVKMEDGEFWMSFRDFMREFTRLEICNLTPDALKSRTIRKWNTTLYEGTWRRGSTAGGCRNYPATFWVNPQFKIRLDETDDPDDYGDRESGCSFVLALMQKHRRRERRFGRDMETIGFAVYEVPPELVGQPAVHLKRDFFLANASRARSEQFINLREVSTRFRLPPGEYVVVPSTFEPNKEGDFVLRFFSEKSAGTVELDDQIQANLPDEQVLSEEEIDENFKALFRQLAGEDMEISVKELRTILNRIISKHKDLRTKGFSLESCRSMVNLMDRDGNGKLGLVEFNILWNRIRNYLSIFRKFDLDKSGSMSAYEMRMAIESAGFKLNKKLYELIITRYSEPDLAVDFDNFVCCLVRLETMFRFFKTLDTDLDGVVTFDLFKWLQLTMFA
T1 sequence (P04632 1-268 partner): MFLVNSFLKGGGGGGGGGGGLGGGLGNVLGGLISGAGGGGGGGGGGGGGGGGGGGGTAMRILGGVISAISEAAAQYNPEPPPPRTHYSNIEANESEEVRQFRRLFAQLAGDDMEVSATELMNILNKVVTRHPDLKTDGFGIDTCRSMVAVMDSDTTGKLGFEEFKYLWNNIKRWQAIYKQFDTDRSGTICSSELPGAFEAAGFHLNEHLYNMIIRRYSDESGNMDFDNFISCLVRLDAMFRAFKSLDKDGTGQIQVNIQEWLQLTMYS
Description: The Ki value was also determined in some cases. These criteria were used to measure the inhibitory effect of the compounds (I) on calpain I, calpain II and cathepsin B.
The inhibitory properties of calpain inhibitors are tested in 100 μl of a buffer containing 100 mM imidazole pH 7.5, 5 mM L-Cystein-HCl, 5 mM CaCl2, 250 μM of the calpain fluorogenic substrate Suc-Leu-Tyr-AMC (Sigma) (Sasaki et al., J. Biol. Chem., 1984, 259, 12489-12949) dissolved in 2.5 μl DMSO and 0.5 μg of human μ-calpain (Calbiochem). The inhibitors dissolved in 1 μl DMSO are added to the reaction buffer. The fluorescence of the cleavage product 7-amino-4-methylcoumarin (AMC) is followed in a SPECTRAmax GEMINI XS (Molecular Device) fluorimeter at λex=360 nm and λem=440 nm at 30° C. during 30 min at intervals of 30 sec in 96-well plates (Greiner). The initial reaction velocity at different inhibitor concentrations is plotted against the inhibitor concentration and the IC50 values determined graphically.

[2] = test system: utrophin expression in human DMD myotubes; assay: Utrophin Expression Assay in Human Myotubes; assay type: cell-based; settings: 50 nM test compound
Description: Utrophin induction was determined by a method which was similar to a method of I. Courdier-Fruh et al., Neuromuscular Disord., 2002, 12, S95-S104.
Primary human muscle cell cultures were prepared from muscle biopsies taken during orthopedic surgery from Duchenne patients (provided by the Association Francaise contre les Myopathies). Cultures were prepared and maintained according to standard protocols. Induction of utrophin expression in human DMD myotubes was assayed at 50 nM or 500 nM of test compound added in differentiation medium. Normalized utrophin protein levels are determined after 5-6 d of incubation by cell-based ELISA with a mouse monoclonal antibody to the aminoterminal portion of utrophin (NCL-DRP2, Novocastra Laboratories). For calibration, the cell density and differentiation was determined by absorbance measurements of the total dehydrogenase enzyme activity in each well using the colorimetric CellTiter 96®AQ One Solution Reagent Proliferation Assay (Promega) according to the manufacturer's recommendation. […] Utrophin protein levels were determined immunologically with utrophin-specific primary antibody and with anappropriate peroxidase-coupled secondary antibody (Jackson ImmunoResearch Laboratories) using QuantaBlu™ Fluorogenic Peroxidase Substrate Kit (Pierce) for detection. […] The primary readout of this signal is presented in arbitrary units. […]

pIC50 [1]	melting point	SMILES	UTR Induction @50 nM [2]
7.35	–	CCNC(=O)C(=O)[C@H](Cc1ccc(Cl)cc1)NC(=O)[C@@H](NC(=O)[C@H](Cc1ccccc1)NC(=O)CCCCc1cccs1)C(C)C [Example 1]	–
6.52	238 to 241 °C	CCNC(=O)C(=O)C(Cc1ccc(Cl)cc1)NC(=O)C(NC(=O)C(Cc1cccc2ccccc12)NC(=O)CCCCc1cccs1)C(C)C (stereo not shown) [Example 22]	117%
7.82	238 to 240 °C	CCNC(=O)C(=O)C(Cc1ccc(OC)cc1)NC(=O)C(NC(=O)C(CCc1ccccc1)NC(=O)CCc1cccs1)C(C)C (stereo not shown) [Example 520]	134%
